Data: BindingDB's records for patent US20240352053 (Betta Pharmaceuticals, 2024)

Experiments:
Test in all cases: Kinase Inhibition Assay
[1] = molecular target: Epidermal growth factor receptor (Homo sapiens, UniProt P00533)
Experimental: (§1) Mobility shift assays were performed to determine the compound's inhibitory activity against EGFR delta19del/T790M/C797S, EGFR WT, and IGF1R kinases. The enzyme reaction scheme is as follows: 1. Prepare 1*kinase buffer as follows. Final 1* Kinase buffer concentration HEPES PH 7.5 (mM) 50 Brij-35 0.0150% DTT (mM) 2 Mgcl2, Mncl2 (mM) 10 2. Preparation of compound concentration gradient: The starting concentration of the test compound is 3000 nM or 100 nM, dilute it in the 384-source plate to a 100% DMSO solution of 100 times the final concentration, and use precision to dilute the compound 3 times to 10 concentrations. Use the Dispenser Echo 550 to transfer 250 nL of 100x the final concentration of compound to the destination plate OptiPlate-384F. 3. Prepare a kinase solution with 2.5 times the final concentration using 1x Kinase buffer. 4. Add 10 uL of 2.5 times the final concentration of kinase solution to the compound wells and positive control wells respectively; add 10 uL of 1x Kinase buffer to the negative control wells. 5. Centrifuge at 1000 rpm for 30 seconds, shake and mix the reaction plate and incubate at room temperature for 10 minutes. 6. Use 1x Kinase buffer to prepare a mixed solution of ATP and Kinase substrate at 5/3 times the final concentration. 7. Add 15 uL of a mixed solution of ATP and substrate at 5/3 times the final concentration to start the reaction. 8. Centrifuge the 384-well plate at 1000 rpm for 30 seconds, mix well by shaking, and incubate at room temperature for the corresponding time. 9. Add 30 uL of stop detection solution to stop the kinase reaction, centrifuge at 1000 rpm for 30 seconds, and shake to mix. 10. Use Caliper EZ Reader to read conversion rates. 11. Calculation formula

[2] = molecular target: T1, Epidermal growth factor receptor [1-18,20-1210,T790M,C797S] (Human, UniProt P00533, T790M/C797S)
T1 construct: 1-18,20-1210
Experimental: as §1

[3] = molecular target: Insulin-like growth factor 1 receptor (Homo sapiens, UniProt P08069)
Sequence of Insulin-like growth factor 1 receptor (P08069 31-736 limits assumed): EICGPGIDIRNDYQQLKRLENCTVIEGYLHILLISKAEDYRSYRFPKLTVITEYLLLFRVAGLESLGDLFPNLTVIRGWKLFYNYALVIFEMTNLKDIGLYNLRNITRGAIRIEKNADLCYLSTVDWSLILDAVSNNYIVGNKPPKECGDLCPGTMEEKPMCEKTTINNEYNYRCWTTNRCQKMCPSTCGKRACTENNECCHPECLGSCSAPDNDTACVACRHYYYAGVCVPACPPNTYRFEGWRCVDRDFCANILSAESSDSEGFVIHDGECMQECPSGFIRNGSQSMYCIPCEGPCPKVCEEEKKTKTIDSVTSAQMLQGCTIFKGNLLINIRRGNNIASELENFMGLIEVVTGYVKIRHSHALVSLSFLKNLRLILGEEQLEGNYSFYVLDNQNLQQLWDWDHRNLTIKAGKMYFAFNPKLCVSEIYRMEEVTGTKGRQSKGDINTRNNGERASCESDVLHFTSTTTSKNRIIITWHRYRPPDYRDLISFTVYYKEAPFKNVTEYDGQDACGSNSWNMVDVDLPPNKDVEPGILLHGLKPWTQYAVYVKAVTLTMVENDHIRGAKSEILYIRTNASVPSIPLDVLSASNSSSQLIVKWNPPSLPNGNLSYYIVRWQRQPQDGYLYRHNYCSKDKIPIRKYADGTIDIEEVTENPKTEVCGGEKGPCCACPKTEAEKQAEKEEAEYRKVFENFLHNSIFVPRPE
Sequence of Insulin-like growth factor 1 receptor (P08069 741-1367 limits assumed): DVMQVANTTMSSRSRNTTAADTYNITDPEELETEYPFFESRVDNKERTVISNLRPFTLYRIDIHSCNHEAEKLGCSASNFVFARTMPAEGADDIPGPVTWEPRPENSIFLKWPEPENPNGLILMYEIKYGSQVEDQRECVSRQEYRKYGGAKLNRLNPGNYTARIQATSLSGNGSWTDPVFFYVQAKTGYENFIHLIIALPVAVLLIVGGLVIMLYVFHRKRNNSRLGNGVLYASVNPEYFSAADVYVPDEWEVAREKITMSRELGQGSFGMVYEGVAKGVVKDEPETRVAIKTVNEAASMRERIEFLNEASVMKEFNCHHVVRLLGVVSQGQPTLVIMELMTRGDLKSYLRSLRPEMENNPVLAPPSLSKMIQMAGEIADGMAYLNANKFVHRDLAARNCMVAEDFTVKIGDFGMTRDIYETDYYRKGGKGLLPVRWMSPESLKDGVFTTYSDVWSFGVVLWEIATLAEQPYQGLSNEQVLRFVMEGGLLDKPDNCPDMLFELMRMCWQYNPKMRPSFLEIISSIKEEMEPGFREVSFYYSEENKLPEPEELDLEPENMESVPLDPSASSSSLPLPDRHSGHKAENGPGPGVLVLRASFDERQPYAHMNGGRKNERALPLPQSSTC
Experimental: as §1

Sequence of Epidermal growth factor receptor (P00533 whole entry): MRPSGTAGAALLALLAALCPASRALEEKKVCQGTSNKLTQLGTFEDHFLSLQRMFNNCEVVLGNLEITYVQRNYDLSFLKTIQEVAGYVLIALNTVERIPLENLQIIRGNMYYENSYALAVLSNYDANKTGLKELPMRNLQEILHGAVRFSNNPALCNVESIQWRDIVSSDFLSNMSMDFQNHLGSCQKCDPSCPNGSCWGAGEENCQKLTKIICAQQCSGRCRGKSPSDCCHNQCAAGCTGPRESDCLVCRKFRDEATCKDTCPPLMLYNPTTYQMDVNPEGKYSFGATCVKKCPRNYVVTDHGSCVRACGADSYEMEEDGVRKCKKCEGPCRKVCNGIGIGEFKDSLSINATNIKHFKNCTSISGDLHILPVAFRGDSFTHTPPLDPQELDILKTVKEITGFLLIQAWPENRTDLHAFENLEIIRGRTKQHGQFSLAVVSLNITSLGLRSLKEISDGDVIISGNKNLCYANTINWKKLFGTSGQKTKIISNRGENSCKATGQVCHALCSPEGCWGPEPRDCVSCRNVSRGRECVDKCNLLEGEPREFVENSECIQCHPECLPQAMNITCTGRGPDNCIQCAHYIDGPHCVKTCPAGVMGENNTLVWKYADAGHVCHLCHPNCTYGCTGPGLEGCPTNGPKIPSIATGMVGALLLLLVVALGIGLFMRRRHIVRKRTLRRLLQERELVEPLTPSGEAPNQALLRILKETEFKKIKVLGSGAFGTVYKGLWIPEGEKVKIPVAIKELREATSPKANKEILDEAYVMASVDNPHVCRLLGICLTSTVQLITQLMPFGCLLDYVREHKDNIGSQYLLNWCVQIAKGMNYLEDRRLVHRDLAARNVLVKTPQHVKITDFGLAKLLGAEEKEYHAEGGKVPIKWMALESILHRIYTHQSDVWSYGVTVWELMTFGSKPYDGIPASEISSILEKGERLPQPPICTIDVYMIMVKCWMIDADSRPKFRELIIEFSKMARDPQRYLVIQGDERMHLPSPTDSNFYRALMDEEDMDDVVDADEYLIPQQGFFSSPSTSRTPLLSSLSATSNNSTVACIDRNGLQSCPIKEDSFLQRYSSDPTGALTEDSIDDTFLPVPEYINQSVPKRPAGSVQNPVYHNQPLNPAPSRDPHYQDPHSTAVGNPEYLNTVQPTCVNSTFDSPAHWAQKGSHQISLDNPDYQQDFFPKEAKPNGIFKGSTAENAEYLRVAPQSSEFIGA

IC50 [1] | IC50 [2] | IC50 [3] | SMILES
5.1 nM | 0.2 nM | 9.5 nM | CCc1cc(Nc2ncc(Br)c(Nc3ccc4ncccc4c3P(C)(C)=O)n2)c(OC)cc1N1CCC(N2CCN(C)CC2)CC1 [US20240352053, Compound Control Example 1]
 | 0.3 nM |  | COc1cc(N2CCC(N3CCN(C)CC3)CC2)c(C)cc1Nc1ncc(Br)c(Nc2ccc3nc(C4CC4)ccc3c2P(C)(C)=O)n1 [US20240352053, Compound Formula I]
